One block for each compound: values may come before it. Non-standard residues stand in square brackets, D forms with d. Residues, ends and D or L forms follow the SMILES beside them. NMeF = CN[C@@H](Cc1ccccc1)C(=O)O; 3Pal = N[C@@H](Cc1cccnc1)C(=O)O; NMeN = CN[C@@H](CC(N)=O)C(=O)O; NMeS = CN[C@@H](CO)C(=O)O; Nle = CCCC[C@H](N)C(=O)O
Experiments:
[1] = test system: thrombin generation in human platelet poor plasma with skeletal muscle myosin; experiment: Assay 2A: thrombin generation, recalcification of human platelet poor plasma + myosin; type: biochemical; conditions: human platelet poor plasma 30%, myosin 50 nM, CaCl2 10 mmol/L; read-out: 2A (recalcification +myosin)
Method: Activities of the various peptides and derivative compounds were also examined via assays using recalcification of human plasma. [One of] these assay format (2A) involves monitoring thrombin generation in platelet poor plasma (PPP). Specifically, pooled normal human platelet poor plasma (PPP) (obtained from George King Bio Medical Inc., Overland Park, Kans.) (30%) was incubated with skeletal muscle myosin at 50 nM in the presence of peptide in DMSO or DMSO alone for 5 min at 37° C. Then, fluorogenic thrombin substrate solution (Z-Gly-Gly-Arg-AMC) (I-1140) with CaCl2 (10 mmol/L final) alone was added to the reaction mixture (total 110 μl) to initiate coagulation. Thrombin generation was followed continuously for 25 min using SPECTRAmax GEMINI XS fluorometer (Molecular Devices, Sunnyvale, Calif.) with excitation and emission wavelengths set at 360 and 460 nm, respectively. The first derivative of fluorescence versus time was used to produce thrombin generation curves with the correction for substrate consumption and inner filter effect. For this assay 96 well plate (total 110 μL) or 384 well plates (total 30 μL) were used.
Activities obtained from Assay 2A (recalcification of human plasma in the presence of myosin) were used to rank the various peptides listed in Table 3. As noted above, this assay monitors recalcification of plasma to stimulate thrombin generation. In this assay, potency of the compounds was determined as the peptide concentration for 50% inhibition of thrombin generation, defined as “IC50”.

[2] = target: skeletal muscle myosin-supported prothrombin activation by factors Xa and Va (Homo sapiens, UniProt P00742); experiment: Assay 1A: prothrombin activation by factor Xa/factor Va/myosin in purified system; type: biochemical, human factors Xa and Va; rabbit skeletal muscle myosin; conditions: purified system; skeletal muscle myosin, factor Va 5 nM, factor Xa 0.2 nM, prothrombin 0.75 μM, 10 min; read-out: 1A (+myosin)
Sequence of skeletal muscle myosin-supported prothrombin activation by factors Xa and Va (Homo sapiens, UniProt P00742) (P00742 41-179): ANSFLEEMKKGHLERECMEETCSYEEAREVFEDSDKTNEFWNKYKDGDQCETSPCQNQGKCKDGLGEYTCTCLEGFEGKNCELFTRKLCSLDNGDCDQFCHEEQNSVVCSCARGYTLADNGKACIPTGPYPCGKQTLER
Sequence of skeletal muscle myosin-supported prothrombin activation by factors Xa and Va (Homo sapiens, UniProt P00742) (P00742 235-488): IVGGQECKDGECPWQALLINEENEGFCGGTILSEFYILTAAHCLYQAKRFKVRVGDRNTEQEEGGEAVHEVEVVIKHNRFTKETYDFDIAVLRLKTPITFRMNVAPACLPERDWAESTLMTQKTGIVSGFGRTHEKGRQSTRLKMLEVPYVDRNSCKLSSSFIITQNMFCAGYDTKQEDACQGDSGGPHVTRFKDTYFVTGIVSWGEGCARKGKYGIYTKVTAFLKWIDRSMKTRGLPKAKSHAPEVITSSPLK
Sequence of skeletal muscle myosin-supported prothrombin activation by factors Xa and Va (Homo sapiens, UniProt P00742) (P12259 29-737 partner): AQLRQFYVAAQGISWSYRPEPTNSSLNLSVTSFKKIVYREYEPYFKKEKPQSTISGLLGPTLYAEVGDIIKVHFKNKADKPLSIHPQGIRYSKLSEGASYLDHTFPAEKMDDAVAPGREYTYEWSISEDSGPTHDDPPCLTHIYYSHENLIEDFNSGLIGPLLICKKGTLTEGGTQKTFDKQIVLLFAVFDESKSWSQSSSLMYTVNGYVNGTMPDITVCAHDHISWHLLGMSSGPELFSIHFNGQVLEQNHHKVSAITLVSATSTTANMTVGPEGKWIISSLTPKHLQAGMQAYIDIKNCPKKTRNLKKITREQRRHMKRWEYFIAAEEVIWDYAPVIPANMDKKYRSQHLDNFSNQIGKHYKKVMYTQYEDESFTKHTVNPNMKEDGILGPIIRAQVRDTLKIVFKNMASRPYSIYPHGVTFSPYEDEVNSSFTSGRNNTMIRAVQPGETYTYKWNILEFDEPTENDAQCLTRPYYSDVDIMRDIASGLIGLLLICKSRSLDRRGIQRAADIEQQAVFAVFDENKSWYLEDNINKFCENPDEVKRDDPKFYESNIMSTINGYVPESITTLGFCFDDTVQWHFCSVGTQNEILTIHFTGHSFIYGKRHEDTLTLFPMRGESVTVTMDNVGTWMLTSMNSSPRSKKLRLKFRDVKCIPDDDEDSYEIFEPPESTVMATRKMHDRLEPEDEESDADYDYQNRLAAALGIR
Sequence of skeletal muscle myosin-supported prothrombin activation by factors Xa and Va (Homo sapiens, UniProt P00742) (P12259 1574-2224 partner): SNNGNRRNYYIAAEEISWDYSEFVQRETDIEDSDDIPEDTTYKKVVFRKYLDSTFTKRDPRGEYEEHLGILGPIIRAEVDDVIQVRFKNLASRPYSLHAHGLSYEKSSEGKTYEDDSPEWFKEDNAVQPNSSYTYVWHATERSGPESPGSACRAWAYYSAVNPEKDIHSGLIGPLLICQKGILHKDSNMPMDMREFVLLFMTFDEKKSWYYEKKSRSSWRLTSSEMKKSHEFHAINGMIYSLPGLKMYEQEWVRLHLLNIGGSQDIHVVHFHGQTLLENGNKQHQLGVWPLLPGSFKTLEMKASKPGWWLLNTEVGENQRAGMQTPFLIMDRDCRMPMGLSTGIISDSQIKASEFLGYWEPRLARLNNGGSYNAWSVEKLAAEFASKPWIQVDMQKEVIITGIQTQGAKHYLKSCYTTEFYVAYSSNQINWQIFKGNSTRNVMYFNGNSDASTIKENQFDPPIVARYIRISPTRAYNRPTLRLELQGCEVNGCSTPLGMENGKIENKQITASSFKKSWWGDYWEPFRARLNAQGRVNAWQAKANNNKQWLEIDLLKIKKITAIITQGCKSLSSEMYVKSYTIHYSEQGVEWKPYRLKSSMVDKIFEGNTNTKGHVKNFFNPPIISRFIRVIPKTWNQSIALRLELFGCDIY

[3] = test system: skeletal muscle myosin-supported prothrombin activation by factors Xa and Va; experiment: as above; type: biochemical, human factors Xa and Va; rabbit skeletal muscle myosin; conditions: for IC50: dose-dependency assays, FIG. 2A, myosin 2 nM, read-out: IC50, inhibition of myosin-supported prothrombin activation; for inhibition of myosin-supported prothrombin activation at 5 μM: peptide 5 μM; for inhibition of myosin-supported prothrombin activation at 5 μM / inhibition of myosin-supported prothrombin activation at 100 μM: FIG. 1A; for inhibition of myosin-supported prothrombin activation at 100 μM: peptide 100 μM; for inhibition of myosin-supported prothrombin activation: dose-dependent studies, FIG. 4, TFP 0-100 μM, ELC peptides 0-300 μM
[4] = target: phospholipid-supported prothrombin activation by factors Xa and Va (Homo sapiens, UniProt P00742); experiment: Assay 1C: phospholipid vesicle (PC/PS 80%/20%)-supported prothrombin activation; type: biochemical
Sequence of phospholipid-supported prothrombin activation by factors Xa and Va (P00742 41-179 limits assumed): as the sequence (P00742 41-179) above
Sequence of phospholipid-supported prothrombin activation by factors Xa and Va (P00742 235-488 limits assumed): as the sequence (P00742 235-488) above

[5] = target: T1, prothrombin activation by factor Xa and factor Va (no myosin) (Homo sapiens, UniProt P00742); experiment: Assay 1B: prothrombin activation by factor Xa/factor Va, no myosin; type: biochemical; conditions: FIG. 4; peptide 0-300 μM
T1 construct: the same reaction mixture of factor Xa, factor Va and prothrombin
T1 sequence (P00742 41-179 limits assumed): as the sequence (P00742 41-179) above
T1 sequence (P00742 235-488 limits assumed): as the sequence (P00742 235-488) above

Compound: CC[C@H](C)[C@H](NC(=O)[C@H](CC(C)C)NC(=O)[C@H](CCC(N)=O)NC(=O)[C@H](C)NC(=O)[C@H](CC(C)C)NC(=O)[C@H](CCCCN)NC(=O)[C@H](CC(=O)O)NC(=O)[C@H](CC(=O)O)NC(=O)[C@H](CCCNC(=N)N)NC(=O)[C@H](CCSC)NC(=O)[C@@H](N)CCC(=O)O)C(=O)N[C@H](C(=O)N[C@@H](CCCNC(=N)N)C(=O)N[C@H](C(=O)N[C@@H](CCC(N)=O)C(=O)N[C@@H](C)C(=O)N[C@@H](CCCNC(=N)N)C(=O)N[C@@H](CS)C(=O)N[C@@H](CCCNC(=N)N)C(=O)NCC(=O)N[C@@H](Cc1ccccc1)C(=O)N[C@@H](CC(C)C)C(=O)N[C@@H](C)C(=O)N[C@@H](CCCNC(=N)N)C(=O)N[C@H](C(=O)N[C@@H](CCC(=O)O)C(=O)N[C@@H](Cc1ccc(O)cc1)C(=O)N[C@@H](CCC(N)=O)C(=O)N[C@@H](CCCNC(=N)N)C(=O)N[C@@H](CCSC)C(N)=O)C(C)C)[C@@H](C)O)[C@@H](C)O [HC781-810] (H-EMRDDKLAQLITRTQARCRGFLARVEYQRM-NH2)
- IC50 [3]: 64 µM
- inhibition of myosin-supported prothrombin activation at 5 μM [3]: inhibitory, to varying degrees
- inhibition of myosin-supported prothrombin activation at 100 μM [3]: inhibited
- IC50 ([4]; PC/PS vesicles 4 μM, read-out: IC50, phospholipid vesicles containing 20% phosphatidylserine-supported prothrombin activation): 7.5 µM

Compound: QEEIKNMWAAFPPDVGGNVDYKNICYVITH [RLC133-162]
- IC50 [3]: 26 µM
- inhibition of myosin-supported prothrombin activation at 5 μM [3]: inhibitory, to varying degrees
- inhibition of myosin-supported prothrombin activation at 100 μM [3]: inhibited
- inhibitory effects on phospholipid-supported prothrombin activation ([4]; compared with effects on myosin-supported prothrombin activation): not apparent

Compound: RVFDKEGNGTVMGAELRHVL [ELC138-157]
- inhibition of myosin-supported prothrombin activation [3]: inhibited
- inhibition of prothrombin activation in the absence of myosin [5]: inhibited

Compound: YEDFVEGLRVFDKEGN [ELC129-144, Ac-YEDFVEGLRVFDKEGN-NH2]
- inhibition of myosin-supported prothrombin activation [3]: inhibited
- inhibition of prothrombin activation in the absence of myosin [5]: did not

Next, values leading:

- IC50 [1]: 13 µM
- IC50 [2]: 1.7 µM
Compound: CCCC[C@H](NC(=O)[C@H](Cc1c[nH]c2ccccc12)NC(=O)[C@@H]1CCCN1C(=O)[C@H](Cc1c[nH]c2ccccc12)NC(=O)[C@H](Cc1c[nH]cn1)NC(=O)[C@H](CCCCN)NC(=O)[C@@H](NC(=O)[C@H](CC(N)=O)NC(=O)[C@H](CCCC)NC(=O)[C@H](Cc1ccccc1)NC(=O)[C@H](CO)NC(=O)[C@H](CCCNC(=N)N)NC(=O)[C@@H](NC(=O)[C@H](CC(N)=O)NC(=O)[C@H](Cc1ccc(O)cc1)NC(=O)[C@H](CCC(N)=O)NC(=O)[C@@H](NC(=O)[C@H](CS)NC(=O)[C@H](Cc1cccnc1)NC(=O)[C@@H](NC(=O)[C@H](C)N)[C@@H](C)CC)[C@@H](C)CC)[C@@H](C)CC)C(C)C)C(=O)N[C@@H](CCCCN)C(N)=O [HC178] (H-AI[3Pal]CIQYNIRSF[Nle]NVKHWPW[Nle]K-NH2; N-terminus assumed)

- IC50 [1]: 10 µM
- IC50 [2]: 0.59 µM
Compound: CCCC[C@H](NC(=O)[C@H](Cc1c[nH]c2ccccc12)NC(=O)[C@@H]1CCCN1C(=O)[C@H](Cc1c[nH]c2ccccc12)NC(=O)[C@H](Cc1c[nH]cn1)NC(=O)[C@H](CCCCN)NC(=O)[C@@H](NC(=O)[C@H](CC(N)=O)NC(=O)[C@H](CCCC)NC(=O)[C@H](Cc1ccccc1)NC(=O)[C@H](CO)NC(=O)[C@H](CCCNC(=N)N)NC(=O)[C@@H](NC(=O)[C@H](CC(N)=O)NC(=O)[C@H](Cc1ccc(O)cc1)NC(=O)[C@H](CCC(N)=O)NC(=O)[C@@H](NC(=O)[C@H](CO)NC(=O)[C@H](Cc1ccccc1)NC(=O)[C@@H](NC(=O)[C@H](C)N)[C@@H](C)CC)[C@@H](C)CC)[C@@H](C)CC)C(C)C)C(=O)N[C@@H](CCCCN)C(N)=O [HC188] (H-AIFSIQYNIRSF[Nle]NVKHWPW[Nle]K-NH2; N-terminus assumed)

- IC50 [1]: 17 µM
- IC50 [2]: 1.5 µM
Compound: CCCC[C@H](NC(=O)[C@H](Cc1c[nH]c2ccccc12)NC(=O)[C@@H]1CCCN1C(=O)[C@H](Cc1c[nH]c2ccccc12)NC(=O)[C@H](Cc1c[nH]cn1)NC(=O)[C@H](CCCCN)NC(=O)[C@@H](NC(=O)[C@H](CC(N)=O)NC(=O)[C@H](CCCC)NC(=O)[C@H](Cc1ccccc1)NC(=O)[C@H](CO)NC(=O)[C@H](CCCNC(=N)N)NC(=O)[C@@H](NC(=O)[C@H](CC(N)=O)NC(=O)[C@H](Cc1ccc(O)cc1)NC(=O)[C@H](CCC(N)=O)NC(=O)[C@@H](NC(=O)[C@H](CO)N(C)C(=O)[C@H](Cc1ccccc1)NC(=O)[C@@H](NC(=O)[C@H](C)N)[C@@H](C)CC)[C@@H](C)CC)[C@@H](C)CC)C(C)C)C(=O)N[C@@H](CCCCN)C(N)=O [HC189] (H-AIF[NMeS]IQYNIRSF[Nle]NVKHWPW[Nle]K-NH2; N-terminus assumed)

- IC50 [1]: 16 µM
- IC50 [2]: 0.87 µM
Compound: CCCC[C@H](NC(=O)[C@H](Cc1c[nH]c2ccccc12)NC(=O)[C@@H]1CCCN1C(=O)[C@H](Cc1c[nH]c2ccccc12)NC(=O)[C@H](Cc1c[nH]cn1)NC(=O)[C@H](CCCCN)NC(=O)[C@@H](NC(=O)[C@H](CC(N)=O)NC(=O)[C@H](CCCC)NC(=O)[C@H](Cc1ccccc1)N(C)C(=O)[C@H](CO)NC(=O)[C@H](CCCNC(=N)N)NC(=O)[C@@H](NC(=O)[C@H](CC(N)=O)NC(=O)[C@H](Cc1ccc(O)cc1)NC(=O)[C@H](CCC(N)=O)NC(=O)[C@@H](NC(=O)[C@H](CS)NC(=O)[C@H](Cc1ccccc1)NC(=O)[C@@H](NC(=O)[C@H](C)N)[C@@H](C)CC)[C@@H](C)CC)[C@@H](C)CC)C(C)C)C(=O)N[C@@H](CCCCN)C(N)=O [HC198] (H-AIFCIQYNIRS[NMeF][Nle]NVKHWPW[Nle]K-NH2; N-terminus assumed)

- IC50 [1]: 5.8 to 10.2 µM
- IC50 [2]: 0.46 µM
Compound: CCCC[C@H](NC(=O)[C@H](Cc1c[nH]c2ccccc12)NC(=O)[C@@H]1CCCN1C(=O)[C@H](Cc1c[nH]c2ccccc12)NC(=O)[C@H](Cc1c[nH]cn1)NC(=O)[C@H](CCCCN)NC(=O)[C@@H](NC(=O)[C@H](CC(N)=O)N(C)C(=O)[C@H](CCCC)NC(=O)[C@H](Cc1ccccc1)NC(=O)[C@H](CO)NC(=O)[C@H](CCCNC(=N)N)NC(=O)[C@@H](NC(=O)[C@H](CC(N)=O)NC(=O)[C@H](Cc1ccc(O)cc1)NC(=O)[C@H](CCC(N)=O)NC(=O)[C@@H](NC(=O)[C@H](CS)NC(=O)[C@H](Cc1ccccc1)NC(=O)[C@@H](NC(=O)[C@H](C)N)[C@@H](C)CC)[C@@H](C)CC)[C@@H](C)CC)C(C)C)C(=O)N[C@@H](CCCCN)C(N)=O [HC199] (H-AIFCIQYNIRSF[Nle][NMeN]VKHWPW[Nle]K-NH2)

Reference: patent publication US20220340629A1, “Myosin Derived Peptides and Related Compounds with Anticoagulant Activities” (THE SCRIPPS RESEARCH INSTITUTE, priority 0001, published 2022)
